# The OligoGym collection
# Values joined by “and” are separate entries in the source; they are usually repeats but may differ in a detail not shown here. Equal values may be shown once. After the bases stand the sugars from the 5' end (letter, count) and the backbone: PS all phosphorothioate, else s phosphorothioate and o phosphodiester by linkage. HELM strings list units from the 5' end as sugar, base in round brackets, then linkage (d deoxyribose, r ribose, m 2'-O-methyl, p phosphodiester). Methylation of C is not given here. [moe] = 2'-O-(2-methoxyethyl) (MOE); [cEt] = constrained ethyl (cEt); [sp] = phosphorothioate linkage; e = 2'-O-(2-methoxyethyl) (MOE); d = 2'-deoxy (DNA)
# Columns and labels:
# HBV = settings: ASO
# DGAT2 = settings: ASO
substance,measurement,setting,value
RNA1{[moe](A)[sp].[cEt](A)[sp].[cEt](G)[sp].d(A)[sp].d(T)[sp].d(G)[sp].d(A)[sp].d(G)[sp].d(G)[sp].d(C)[sp].d(A)[sp].d(T)[sp].d(A)[sp].[cEt](G)[sp].[cEt](C)[sp].[moe](A)}$$$$V2.0,target mRNA inhibition,"HBV; HepG2, 0.07 µM",64% and 62%
RNA1{[moe](A)[sp].[cEt](A)[sp].[cEt](T)[sp].d(T)[sp].d(T)[sp].d(A)[sp].d(T)[sp].d(G)[sp].d(C)[sp].d(C)[sp].d(T)[sp].d(A)[sp].d(C)[sp].[cEt](A)[sp].[cEt](G)[sp].[moe](C)}$$$$V2.0,target mRNA inhibition,"HBV; HepG2, 0.07 µM",70% and 73%
RNA1{[moe](A)[sp].[cEt](A)[sp].[moe](G)[sp].[cEt](C)[sp].d(G)[sp].[cEt](A)[sp].d(A)[sp].d(G)[sp].d(T)[sp].d(G)[sp].d(C)[sp].d(A)[sp].d(C)[sp].[moe](A)[sp].[moe](C)[sp].[moe](G)[sp].[moe](G)}$$$$V2.0,target mRNA inhibition,"HBV; HepG2, 0.009375 µM",31%
same,target mRNA inhibition,"HBV; HepG2, 0.01875 µM",28%
same,target mRNA inhibition,"HBV; HepG2, 0.0375 µM",48%
same,target mRNA inhibition,"HBV; HepG2, 0.075 µM",61%
same,target mRNA inhibition,"HBV; HepG2, 0.15 µM",80%
same,target mRNA inhibition,"HBV; HepG2, 0.3 µM",90%
RNA1{[moe](A)[sp].[cEt](C)[sp].[cEt](A)[sp].d(G)[sp].d(C)[sp].d(T)[sp].d(T)[sp].d(G)[sp].d(G)[sp].d(A)[sp].d(G)[sp].d(G)[sp].d(C)[sp].[cEt](T)[sp].[cEt](T)[sp].[moe](G)}$$$$V2.0,target mRNA inhibition,"HBV; HepG2, 0.07 µM",10% and 0%
RNA1{[moe](A)[sp].[cEt](C)[sp].[cEt](G)[sp].d(G)[sp].d(G)[sp].d(C)[sp].d(A)[sp].d(A)[sp].d(C)[sp].d(A)[sp].d(T)[sp].d(A)[sp].d(C)[sp].[cEt](C)[sp].[cEt](T)[sp].[moe](T)}$$$$V2.0,target mRNA inhibition,"HBV; HepG2, 0.0092593 µM",38%
same,target mRNA inhibition,"HBV; HepG2, 0.0277778 µM",73%
same,target mRNA inhibition,"HBV; HepG2, 0.07 µM",63% and 88%
same,target mRNA inhibition,"HBV; HepG2, 0.0833333 µM",87%
same,target mRNA inhibition,"HBV; HepG2, 0.25 µM",92%
RNA1{[moe](A)[sp].[cEt](C)[sp].d(T)[sp].d(G)[sp].d(G)[sp].d(A)[sp].d(G)[sp].d(C)[sp].d(C)[sp].d(A)[sp].d(C)[sp].d(C)[sp].[cEt](A)[sp].[moe](G)[sp].[cEt](C)[sp].[moe](A)}$$$$V2.0,target mRNA inhibition,"HBV; HepG2, 0.07 µM",67% and 55%
RNA1{[moe](A)[sp].[cEt](G)[sp].[cEt](A)[sp].d(T)[sp].d(G)[sp].d(A)[sp].d(G)[sp].d(G)[sp].d(C)[sp].d(A)[sp].d(T)[sp].d(A)[sp].d(G)[sp].[cEt](C)[sp].[cEt](A)[sp].[moe](G)}$$$$V2.0,target mRNA inhibition,"HBV; HepG2, 0.07 µM",59% and 56%
RNA1{[moe](A)[sp].[cEt](G)[sp].[cEt](C)[sp].d(G)[sp].d(A)[sp].d(A)[sp].d(G)[sp].d(T)[sp].d(G)[sp].d(C)[sp].d(A)[sp].d(C)[sp].d(A)[sp].[cEt](C)[sp].[cEt](G)[sp].[moe](G)}$$$$V2.0,target mRNA inhibition,"HBV; HepG2, 0.0092593 µM",19%
same,target mRNA inhibition,"HBV; HepG2, 0.0277778 µM",52%
same,target mRNA inhibition,"HBV; HepG2, 0.07 µM",83% and 82%
same,target mRNA inhibition,"HBV; HepG2, 0.0833333 µM",86%
same,target mRNA inhibition,"HBV; HepG2, 0.25 µM",93%
RNA1{[moe](A)[sp].[cEt](G)[sp].[cEt](C)[sp].d(T)[sp].d(T)[sp].d(G)[sp].d(G)[sp].d(A)[sp].d(G)[sp].d(G)[sp].d(C)[sp].d(T)[sp].d(T)[sp].[cEt](G)[sp].[cEt](A)[sp].[moe](A)}$$$$V2.0,target mRNA inhibition,"HBV; HepG2, 0.07 µM",5% and 0%
RNA1{[moe](A)[sp].[cEt](T)[sp].d(G)[sp].d(A)[sp].d(G)[sp].d(G)[sp].d(C)[sp].d(A)[sp].d(T)[sp].d(A)[sp].d(G)[sp].d(C)[sp].[cEt](A)[sp].[moe](G)[sp].[cEt](C)[sp].[moe](A)}$$$$V2.0,target mRNA inhibition,"HBV; HepG2, 0.07 µM",63% and 57%
RNA1{[moe](A)[sp].[moe](A)[sp].[moe](C)[sp].[moe](C)[sp].[moe](A)[sp].d(C)[sp].d(T)[sp].d(G)[sp].d(A)[sp].d(A)[sp].d(C)[sp].d(A)[sp].d(A)[sp].d(A)[sp].[moe](T)[sp].[moe](G)[sp].[moe](G)}$$$$V2.0,target mRNA inhibition,"HBV; HepG2, 0.07 µM",55% and 52%
RNA1{[moe](A)[sp].[moe](A)[sp].[moe](C)[sp].[moe](C)[sp].[moe](A)[sp].d(C)[sp].d(T)[sp].d(G)[sp].d(A)[sp].d(A)[sp].d(C)[sp].d(A)[sp].d(A)[sp].d(A)[sp].[moe](T)[sp].[moe](G)}$$$$V2.0,target mRNA inhibition,"HBV; HepG2, 0.07 µM",24% and 20%
RNA1{[moe](A)[sp].[moe](A)[sp].[moe](G)[sp].[cEt](C)[sp].[cEt](G)[sp].d(A)[sp].d(A)[sp].d(G)[sp].d(T)[sp].d(G)[sp].d(C)[sp].d(A)[sp].[cEt](C)[sp].[cEt](A)[sp].[moe](C)[sp].[moe](G)[sp].[moe](G)}$$$$V2.0,target mRNA inhibition,"HBV; HepG2, 0.009375 µM",23%
same,target mRNA inhibition,"HBV; HepG2, 0.01875 µM",19%
same,target mRNA inhibition,"HBV; HepG2, 0.0375 µM",39%
same,target mRNA inhibition,"HBV; HepG2, 0.075 µM",49%
same,target mRNA inhibition,"HBV; HepG2, 0.15 µM",66%
same,target mRNA inhibition,"HBV; HepG2, 0.3 µM",75%
RNA1{[moe](A)[sp].[moe](A)[sp].[moe](G)[sp].[moe](A)[sp].d(T)[sp].d(G)[sp].d(A)[sp].d(G)[sp].d(G)[sp].d(C)[sp].d(A)[sp].d(T)[sp].d(A)[sp].[moe](G)[sp].[moe](C)[sp].[moe](A)[sp].[moe](G)}$$$$V2.0,target mRNA inhibition,"HBV; HepG2, 0.07 µM",44% and 37%
RNA1{[moe](A)[sp].[moe](A)[sp].[moe](G)[sp].[moe](C)[sp].d(G)[sp].d(A)[sp].d(A)[sp].d(G)[sp].d(T)[sp].d(G)[sp].d(C)[sp].d(A)[sp].d(C)[sp].[moe](A)[sp].[moe](C)[sp].[moe](G)[sp].[moe](G)}$$$$V2.0,target mRNA inhibition,"HBV; HepG2, 0.0092593 µM",5%
same,target mRNA inhibition,"HBV; HepG2, 0.0277778 µM",27%
same,target mRNA inhibition,"HBV; HepG2, 0.07 µM",78% and 64%
same,target mRNA inhibition,"HBV; HepG2, 0.0833333 µM",69%
same,target mRNA inhibition,"HBV; HepG2, 0.25 µM",81%
"TGACTGCATTCTTGCCAGGC (sugars e5 d10 e5, PS)",target mRNA inhibition,"DGAT2; HepG2, 2.5 µM",16%
same,target mRNA inhibition,"DGAT2; HepG2, 10 µM",69%
"TGAGGCCAAGGACAGAGGTT (sugars e5 d10 e5, PS)",target mRNA inhibition,"DGAT2; HepG2, 2.5 µM",59%
same,target mRNA inhibition,"DGAT2; HepG2, 10 µM",85%
"TGATAGCATTGCCACTCCCA (sugars e3 d14 e3, PS)",target mRNA inhibition,"DGAT2; HepG2, 0.12 µM",66%
"TGCAATGTTGCCATCATACT (sugars e5 d10 e5, PS)",target mRNA inhibition,"DGAT2; HepG2, 2.5 µM",65% and 49%
same,target mRNA inhibition,"DGAT2; HepG2, 10 µM",91% and 83%
"TGCAGAAGGCACCCAGGCCC (sugars e5 d10 e5, PS)",target mRNA inhibition,"DGAT2; HepG2, 0.12 µM",46%
"TGCAGCTTGGAGGAGGAGTA (sugars e5 d10 e5, PS)",target mRNA inhibition,"DGAT2; HepG2, 0.12 µM",36%
"TGCCACTCCCATTCTTTGAA (sugars e5 d10 e5, PS)",target mRNA inhibition,"DGAT2; HepG2, 2.5 µM",0%
same,target mRNA inhibition,"DGAT2; HepG2, 10 µM",62%
